pIC50: −log10 of the molar value. Where two headings read alike, the source gives them in different places.
Biological target: T1, Recombinant KAT6A/MOZ (488-778) protein (Homo sapiens, UniProt Q92794)
T1 construct: Recombinant KAT6A/MOZ (488-778) protein (Active motif, Catalog #81223); purchased Active Motif 81223
Assay: Kat6a AlphaLISA Inhibition Screening Assay
Assay type: biochemical
Procedure: The Kat6a inhibitory activity of test compounds was determined using an Alpha Screen-based detection method. The assay reactions were conducted in a volume of 10 μL in Alpha Plate, White 384 well plate (cat #6008280, Perkin Elmer). The enzymatic reactions were performed in assay buffer pH 8.0 (50 mM Tris-HCl, 0.1 mM EDTA, 0.01% Tween-20, 1 mM Dithiothreitol, 0.1% BSA (fatty acid free) and 330 nM TSA (Trichostatin A)). 10 μL reaction volume consisting of 25 nM of Recombinant KAT6A/MOZ (488-778) protein (Active motif, Catalog #81223), 400 nM Acetyl coenzyme A (Catalog #A2056, Sigma), 200 nM of Histone H3 peptide [(amino acids 1-21), biotin-labeled (BPS Biosciences, Catalog #52011,)] and a 10-point dose response curve for test/tool compounds were prepared. Enzyme and compounds solution were pre-incubated in assay plate for 60 or 10 min at room temperature then substrate and Acetyl coenzyme A solution were added to the plate. After addition, the plate was sealed with adhesive seals and incubated for 120 minutes at room temperature.
After 120 minutes of incubation, 5 μL (10 μg/mL) of AlphaLISA anti-acetyl-Lysine acceptor beads (Perkin Elmer, Catalog #AL143C) were added to the plate and it was incubated for 60 minutes at room temperature. Then 10 μL (10 μg/mL) of Alpha Streptavidin donor beads (Perkin Elmer, Catalog #6760002S) were added to the plate which was further incubated for 60 minutes at room temperature. After incubation, the alpha signal was recorded by using Perkin Elmer Envision multi-mode reader.
NA means the compound was not active at the concentration tested. […] NT means not tested.

[1] = 60′ pre-incubation, Table 2, read-out: Kat6A biochemical assay: IC50
[2] = 60′ pre-incubation, Table 3, read-out: Kat6A Biochemical assay: IC50
[3] = 10′ pre-incubation, Table 2, read-out: Kat6A biochemical assay: IC50
[4] = 10′ pre-incubation, Table 3, read-out: Kat6A Biochemical assay: IC50

T1 sequence (Q92794 488-778): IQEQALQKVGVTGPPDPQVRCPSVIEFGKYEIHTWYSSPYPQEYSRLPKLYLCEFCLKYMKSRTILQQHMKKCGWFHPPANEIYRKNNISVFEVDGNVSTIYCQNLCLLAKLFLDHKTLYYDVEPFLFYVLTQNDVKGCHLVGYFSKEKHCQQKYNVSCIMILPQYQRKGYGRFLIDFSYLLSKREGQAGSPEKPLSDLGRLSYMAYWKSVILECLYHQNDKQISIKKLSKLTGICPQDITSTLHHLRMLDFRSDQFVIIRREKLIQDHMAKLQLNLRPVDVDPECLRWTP

Row | pIC50 [1] | pIC50 [2] | Structure (SMILES) | other results
1 | ≥ 5.00 |  | C=CC(=O)NCc1cnn(Cc2cc(OC)c3c(NS(=O)(=O)c4ccccc4OC)noc3c2)c1 [Synthetic Example 51, N-((1-((4-methoxy-3-((2-methoxyphenyl)sulfonamido)benzo[d]isoxazol-6-yl)methyl)-1H-pyrazol-4-yl)methyl)acrylamide] | 
2 | ≥ 5.00 |  | C=CS(=O)(=O)NCc1ccn(Cc2cc(OC)c3c(NS(=O)(=O)c4ccccc4F)noc3c2)n1 [Synthetic Example 17, 2-fluoro-N-(4-methoxy-6-((3-(vinylsulfonamidomethyl)-1H-pyrazol-1-yl)methyl)benzo[d]isoxazol-3-yl)benzenesulfonamide] | 
3 |  | ≥ 5.00 | C#CC(=O)NCCNC(=O)c1cnn(Cc2cc(OC)c3c(NS(=O)(=O)c4cc(CC)ccc4OC)noc3c2)c1 [compound 94, 1-((3-((5-ethyl-2-methoxyphenyl)sulfonamido)-4-methoxybenzo[d]isoxazol-6-yl)methyl)-N-(2-propiolamidoethyl)-1H-pyrazole-4-carboxamide] | 
4 | ≥ 5.00 |  | C=C(F)C(=O)NCc1ccn(Cc2cc(OC)c3c(NS(=O)(=O)CC4CCCCC4)noc3c2)n1 [Synthetic Example 23, N-((1-((3-((cyclohexylmethyl)sulfonamido)-4-methoxybenzo[d]isoxazol-6-yl)methyl)-1H-pyrazol-3-yl)methyl)-2-fluoroacrylamide] | 
5 |  |  | C=CC(=O)NCC(=O)NCc1ccc2cc(C(=O)NS(=O)(=O)c3ccccc3F)oc2c1 [Synthetic Example 39, 6-((2-acrylamidoacetamido)methyl)-N-((2-fluorophenyl)sulfonyl)benzofuran-2-carboxamide] | pIC50 [3]: 4.30 to 4.70
6 |  | ≥ 5.00 | C=CS(=O)(=O)NCCCOCc1cc(OC)c2c(NS(=O)(=O)c3cc(CC)ccc3OC)noc2c1 [compound 90, 5-ethyl-2-methoxy-N-(4-methoxy-6-((3-(vinylsulfonamido)propoxy)methyl)benzo[d]isoxazol-3-yl)benzenesulfonamide] | 
7 |  | ≥ 5.00 | CCS(=O)(=O)NCc1cnn(Cc2cc(OC)c3c(NS(=O)(=O)c4c(OC)cccc4OC)noc3c2)c1 [compound 108] | 
8 |  | < 5.00 | C#CC(=O)NCc1cnn(Cc2cc(OC)c3c(NS(=O)(=O)c4cc(C(=O)O)ccc4OC)noc3c2)c1 [compound 86, 4-methoxy-3-(N-(4-methoxy-6-((4-(propiolamidomethyl)-1H-pyrazol-1-yl)methyl)benzo[d]isoxazol-3-yl)sulfamoyl)benzoic acid] | 
9 | < 5.00 |  | COc1ccccc1S(=O)(=O)Nc1noc2cc(CN3CCC(C(=O)NCC#N)C3)cc(OC)c12 (stereo not shown) [Synthetic Example 67, N-(cyanomethyl)-1-((4-methoxy-3-((2-methoxyphenyl)sulfonamido)benzo[d]isoxazol-6-yl)methyl) pyrrolidine-3-carboxamide] | 
10 | ≥ 5.00 |  | C#CC(=O)NCc1ccnc(-c2cc(C)cc(C(=O)NNS(=O)(=O)c3c(OC)cccc3OC)c2)c1 [Synthetic Example 16, N-((2-(3-(2-((2,6-dimethoxyphenyl)sulfonyl)hydrazine-1-carbonyl)-5-methylphenyl)pyridin-4-yl)methyl)propiolamide] | 
11 | ≥ 5.00 |  | C#CC(=O)NCc1cnn(Cc2cc(OC)c3c(NS(=O)(=O)c4ccc(C(=O)NC)cc4OC)noc3c2)c1 [Synthetic Example 46, 3-methoxy-4-(N-(4-methoxy-6-((4-(propiolamidomethyl)-1H-pyrazol-1-yl)methyl)benzo[d]isoxazol-3-yl)sulfamoyl)-N-methylbenzamide] | 
12 | ≥ 5.00 |  | C#CC(=O)NCc1cnn(Cc2cc(OC)c3c(NS(=O)(=O)c4cccc(OC)c4)noc3c2)c1 [Synthetic Example 35, N-((1-((4-methoxy-3-((3-methoxyphenyl)sulfonamido)benzo[d]isoxazol-6-yl)methyl)-1H-pyrazol-4-yl)methyl)propiolamide] | 
13 |  | ≥ 5.00 | COc1ccccc1S(=O)(=O)Nc1noc2cc(Cn3cc(CNS(=O)(=O)c4ccc(Cl)nc4)cn3)cc(OC)c12 [compound 83, 6-chloro-N-((1-((4-methoxy-3-((2-methoxyphenyl)sulfonamido)benzo[d]isoxazol-6-yl)methyl)-1H-pyrazol-4-yl)methyl)pyridine-3-sulfonamide] | 
14 |  | ≥ 5.00 | C#CC(=O)N1CCN(c2cccc(-c3cc(OC)c4c(NS(=O)(=O)c5c(OC)cccc5OC)noc4c3)n2)CC1 [compound 96, 2,6-dimethoxy-N-(4-methoxy-6-(6-(4-propioloylpiperazin-1-yl)pyridin-2-yl)benzo[d]isoxazol-3-yl)benzenesulfonamide] | 
15 |  | ≥ 5.00 | C#CC(=O)N1CCN(c2cccc(-c3cc(OC)c4c(NS(=O)(=O)CC5CCCCC5)noc4c3)c2)CC1 [compound 117, 1-cyclohexyl-N-(4-methoxy-6-(3-(4-propioloylpiperazin-1-yl)phenyl)benzo[d]isoxazol-3-yl) methanesulfonamide] | 
16 |  |  | COc1cc(Cn2cccn2)cc2[nH]nc(NS(=O)(=O)c3ccccc3F)c12 [compound 124, N-(6-((1H-pyrazol-1-yl)methyl)-4-methoxy-1H-indazol-3-yl)-2-fluorobenzenesulfonamide] | pIC50 [4]: 4.30 to 4.70
17 |  |  | COc1cc(Cn2cc(CN)cn2)cc2onc(NS(=O)(=O)CC3CCCCC3)c12 [compound 130] | pIC50 [4]: ≥ 5.00
18 | ≥ 5.00 |  | C#CC(=O)NCc1cnn(Cc2cc(OC)c3c(NS(=O)(=O)c4ccc(C(=O)OC)cc4)noc3c2)c1 [Synthetic Example 38, methyl 4-(N-(4-methoxy-6-((4-(propiolamidomethyl)-1H-pyrazol-1-yl)methyl)benzo[d]isoxazol-3-yl)sulfamoyl)benzoate] | 
19 |  | ≥ 5.00 | C#CC(=O)N1Cc2cnn(Cc3cc(OC)c4c(NS(=O)(=O)c5cc(CC)ccc5OC)noc4c3)c2C1 [compound 99, 5-ethyl-2-methoxy-N-(4-methoxy-6-((5-propioloyl-5,6-dihydropyrrolo[3,4-c]pyrazol-1(4H)-yl)methyl)benzo[d]isoxazol-3-yl)benzenesulfonamide] | 
20 | 4.70 to 5.00 |  | COc1cc(Cn2cc3c(n2)CNC3)cc2onc(NS(=O)(=O)CC3CCCCC3)c12 [Synthetic Example 28B, 1-cyclohexyl-N-(6-((5,6-dihydropyrrolo[3,4-c]pyrazol-2(4H)-yl)methyl)-4-methoxybenzo[d]isoxazol-3-yl)methanesulfonamide] | 
21 |  | ≥ 5.00 | C=CS(=O)(=O)NCC(=O)NCc1cnn(Cc2cc(OC)c3c(NS(=O)(=O)c4cc(CC)ccc4OC)noc3c2)c1 [compound 93, N-((1-((3-((5-ethyl-2-methoxyphenyl)sulfonamido)-4-methoxybenzo[d]isoxazol-6-yl)methyl)-1H-pyrazol-4-yl)methyl)-2-(vinylsulfonamido) acetamide] | 
22 | ≥ 5.00 |  | C=CC(=O)N1CCN(c2cccc(-c3cc(OC)c4c(NS(=O)(=O)c5c(OC)cccc5OC)noc4c3)c2)CC1 [Synthetic Example 56, N-(6-(3-(4-acryloylpiperazin-1-yl)phenyl)-4-methoxybenzo[d]isoxazol-3-yl)-2,6-dimethoxybenzenesulfonamide] | 
23 |  |  | C#CC(=O)NCc1ccc2cc(C(=O)NS(=O)(=O)c3ccccc3F)oc2c1 [Synthetic Example 11, N-((2-fluorophenyl)sulfonyl)-6-(propiolamidomethyl)benzofuran-2-carboxamide] | pIC50 [3]: 4.30 to 4.70
24 | ≥ 5.00 |  | C#CC(=O)NC1CCN(Cc2cc(OC)c3c(NS(=O)(=O)c4ccccc4OC)noc3c2)CC1 [Synthetic Example 64] | 
25 | ≥ 5.00 |  | C#CC(=O)NCc1cnn(Cc2cc(OC)c3c(NS(=O)(=O)c4ccc(C(=O)O)cc4OC)noc3c2)c1 [Synthetic Example 65, 3-methoxy-4-(N-(4-methoxy-6-((4-(propiolamidomethyl)-1H-pyrazol-1-yl)methyl)benzo[d]isoxazol-3-yl)sulfamoyl)benzoic acid] | 
26 | ≥ 5.00 |  | COC/C=C/C(=O)NCc1cnn(Cc2cc(OC)c3c(NS(=O)(=O)c4ccccc4OC)noc3c2)c1 [Synthetic Example 54, (E)-4-methoxy-N-((1-((4-methoxy-3-((2-methoxyphenyl)sulfonamido)benzo[d]isoxazol-6-yl)methyl)-1H-pyrazol-4-yl)methyl)but-2-enamide] | 

Row | Structure (SMILES) | pIC50 [1] | pIC50 [2] | other results
27 | C#CC(=O)N1CC[C@@H](OCc2cc(OC)c3c(NS(=O)(=O)c4cc(CC)ccc4OC)noc3c2)C1 [compound 110, (R)-5-ethyl-2-methoxy-N-(4-methoxy-6-(((1-propioloylpyrrolidin-3-yl)oxy)methyl)benzo[d]isoxazol-3-yl) benzenesulfonamide] |  | ≥ 5.00 | 
28 | C#CC(=O)N1CCN(c2cccc(-c3cc(OC)c4c(NS(=O)(=O)c5cc(CC)ccc5OC)noc4c3)c2)CC1 [compound 98, 5-ethyl-2-methoxy-N-(4-methoxy-6-(3-(4-propioloylpiperazin-1-yl)phenyl)benzo[d]isoxazol-3-yl) benzenesulfonamide] |  | ≥ 5.00 | 

— patent US11976075B2, “Inhibitors of the MYST family of lysine acetyl transferases” (Isosterix, Inc., priority 2022, dated 2024)
